A short description of the series: recombinant UMI read abundance after kanamycin selection (control-corrected) (log10(CPM+1)); higher = more efficient recombination; extreme values may be limits of the assay; sequences stand for … in AGTGCAGAGAAAATCGGCCAGTTTTCTCTGCCTGCAGTCCGCATGCCGTGGGACCCCTTGGGTTCTAACCTGTTGCCTAGATTTATGCAGCGGACTGCCTTTCTCCCAAAGTGATAAACCGG…AGGTTGGTTTCACT; site = the 11-nt donor. Put shortly: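 For the IS621 bridge recombinase, a pooled Escherichia coli screen tested donor and donor-binding-loop pairs. Cells received the pair library together with a target plasmid encoding a fixed target and T7-inducible recombinase, then went onto IPTG (0.07 mM) plus kanamycin or unselected plates in duplicate. After PCR across the donor–target junction and sequencing, recombinant UMI counts were normalized to CPM, averaged, and scaled by control-derived factors. Each value is given as log10(CPM+1).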
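Also: IS621 bridge recombinase in Escherichia coli cells against a fixed T5 target plasmid.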

In the case of “GTCCATGCATGGACCGGTTTTCCCGGTAATCCGTATTTGGT (site GTTCATGCTAC)”, the “recombinant UMI read abundance (log10)” value was found to be 0.00783. With “GTCCCCACATGGACCGGTTTTCCCGGTAATCCGTATTTGCC (site GTCCCCACTGG)”, the “recombinant UMI read abundance (log10)” value turned out to be 2.05. “GTCCCGACATGGACCGGTTTTCCCGGTAATCCGTATTTGCA (site GTCCCGACTTG)”: the “recombinant UMI read abundance (log10)” value turned out to be 1.54.

Turning to “GTCGAATCATGGACCGGTTTTCCCGGTAATCCGTATTTGTT (site GTCGAATCTAA)”, the “recombinant UMI read abundance (log10)” value amounted to 2.52. Consider “GTCGAGGCATGGACCGGTTTTCCCGGTAATCCGTATTTGTG (site GTAGAGGCTCA)”, for which the “recombinant UMI read abundance (log10)” value stood at 0.867.

Regarding “GTCGAGGCATGGACCGGTTTTCCCGGTAATCCGTATTTGTG (site GTCGAGGCTCA)”, the “recombinant UMI read abundance (log10)” value is 0.765. Regarding “GTCGAGGCATGGACCGGTTTTCCCGGTAATCCGTATTTGTG (site GTGGAGGCTCA)”, the “recombinant UMI read abundance (log10)” value was 0.0124. The value for “GTCGAGGCATGGACCGGTTTTCCCGGTAATCCGTATTTGTG (site GTTGAGGCTCA)” was 0.0142; that for “GTCGCATCATGGACCGGTTTTCCCGGTAATCCGTATTTGGA (site GTCGCATCTTC)” was 2.05. “GTCGCTCCATGGACCGGTTTTCCCGGTAATCCGTATTTGGG (site GTCGCTCCTCC)”: the “recombinant UMI read abundance (log10)” value stood at 0.0316. Regarding “GTCGGTCCATGGACCGGTTTTCCCGGTAATCCGTATTTGAA (site GTCGGTCCTTT)”, the “recombinant UMI read abundance (log10)” value stood at 0.0112. Regarding “GTCTGAGCATGGACCGGTTTTCCCGGTAATCCGTATTTGGA (site GTCTGAGCTTC)”, the “recombinant UMI read abundance (log10)” value is 0.754.

On to “GTGAAGCCATGGACCGGTTTTCCCGGTAATCCGTATTTGGG (site GAGAAGCCTCC)”, for which the “recombinant UMI read abundance (log10)” value turned out to be 0.0044.

With “GTGAAGCCATGGACCGGTTTTCCCGGTAATCCGTATTTGGG (site GCGAAGCCTCC)”, the “recombinant UMI read abundance (log10)” value was 0.0113. As for “GTGAAGCCATGGACCGGTTTTCCCGGTAATCCGTATTTGGG (site GGGAAGCCTCC)”, the “recombinant UMI read abundance (log10)” value is 0.00817. Regarding “GTGAAGCCATGGACCGGTTTTCCCGGTAATCCGTATTTGGG (site GTGAAGCCTCC)”, the “recombinant UMI read abundance (log10)” value stood at 0.00505. As for “GTGAAGGCATGGACCGGTTTTCCCGGTAATCCGTATTTGTG (site GTGAAGGCTCA)”, the “recombinant UMI read abundance (log10)” value came out at 2.12. Turning to “GTGAAGGCATGGACCGGTTTTCCCGGTAATCCGTATTTGTG (site GTGCAGGCTCA)”, the “recombinant UMI read abundance (log10)” value worked out at 0.498. As to “GTGAAGGCATGGACCGGTTTTCCCGGTAATCCGTATTTGTG (site GTGGAGGCTCA)”, the “recombinant UMI read abundance (log10)” value was determined as 1.02. “GTGAAGGCATGGACCGGTTTTCCCGGTAATCCGTATTTGTG (site GTGTAGGCTCA)”: the “recombinant UMI read abundance (log10)” value came out at 0.977. With “GTGAATGCATGGACCGGTTTTCCCGGTAATCCGTATTTGGT (site GTGAATGCTAC)”, the “recombinant UMI read abundance (log10)” value was 2.73. Consider “GTGAATGCATGGACCGGTTTTCCCGGTAATCCGTATTTGGT (site GTGCATGCTAC)”, for which the “recombinant UMI read abundance (log10)” value was determined as 0.318.

In the case of “GTGAATGCATGGACCGGTTTTCCCGGTAATCCGTATTTGGT (site GTGGATGCTAC)”, the “recombinant UMI read abundance (log10)” value was 1.94. The value for “GTGAATGCATGGACCGGTTTTCCCGGTAATCCGTATTTGGT (site GTGTATGCTAC)” was 1.4; that for “GTGACGCCATGGACCGGTTTTCCCGGTAATCCGTATTTGTG (site GTGACGCCTCA)” was 0; that for “GTGAGTACATGGACCGGTTTTCCCGGTAATCCGTATTTGAG (site GTGAGTACTCT)” was 1.75. Regarding “GTGAGTGCATGGACCGGTTTTCCCGGTAATCCGTATTTGAG (site GTGAGTGCTCT)”, the “recombinant UMI read abundance (log10)” value came to 2.12. For the sequence “GTGATAACATGGACCGGTTTTCCCGGTAATCCGTATTTGGC (site GTGATAACTGC)”, the “recombinant UMI read abundance (log10)” value was 2.59. Take “GTGATGACATGGACCGGTTTTCCCGGTAATCCGTATTTGGC (site GTGATGACTGC)”: the “recombinant UMI read abundance (log10)” value was found to be 2.09.
